From US8940310B2, “Methods of treatment using TLR7 and/or TLR9 inhibitors” (Dynavax Technologies Corporation, priority 2010, dated 2015)
[I] = hypoxanthine (inosine); d = 2'-deoxy (DNA); m = 2'-O-methyl

System: human B-cells
Experiment: Human B-cells cultured in the presence of IRPs, IL-6
[1] = Experiment # 4, Max Conc 4.0 uM
[2] = Experiment # 7, Max Conc 4.0 uM
[3] = Experiment # 10, Max Conc 2.0 uM
[4] = Experiment # 11, Max Conc 2.0 uM
[5] = Experiment # 5, Max Conc 4.0 uM
[6] = Experiment # 6, Max Conc 4.0 uM
[7] = Experiment # 8, Max Conc 2.0 uM
[8] = Experiment # 2, Max Conc 4.0 uM

Substance: 5′-UGC TCC TGG AGG GGT TGT (DNA NNNTCCTGGAGGGGTTGT; listed as DNA, chemistry not fully specified) [SEQ ID NO:83]
- Normalized IL-6 Response (Percentage of Positive Control) [1]: 6%
- Normalized IL-6 Response (Percentage of Positive Control) [2]: 6%

Substance: 5′-UGC TCC TGG AGG GGU UGU (DNA UGCTCCTGGAGGGGUUGU; sugars from the 5' end m3 d11 m4, backbone not given here) [SEQ ID NO:85]
- Normalized IL-6 Response (Percentage of Positive Control) [1]: 18%
- Normalized IL-6 Response (Percentage of Positive Control) [2]: 18%

Substance: 5′-UGC TGC TCC TGG AGI GGT GTT GT (DNA UGCTGCTCCTGGAGNGGTGTTGT; sugars from the 5' end m3 d20, [I] at 15, backbone not given here) [SEQ ID NO:182]
- Normalized IL-6 Response (Percentage of Positive Control) [3]: 53%

Substance: 5′-UGC TGC TCC TGG AGI GGT TGT (DNA UGCTGCTCCTGGAGNGGTTGT; sugars from the 5' end m3 d18, [I] at 15, backbone not given here) [SEQ ID NO:125]
- Normalized IL-6 Response (Percentage of Positive Control) [4]: 38%

Substance: 5′-UGC TGC TCC TGG AGI GGT TGT AAG T (DNA UGCTGCTCCTGGAGNGGTTGTAAGT; sugars from the 5' end m3 d22, [I] at 15, backbone not given here) [SEQ ID NO:130]
- Normalized IL-6 Response (Percentage of Positive Control) [3]: 49%

Substance: 5′-UGCTGCTCCTTGAGGGGTTGTTTGT (DNA NNNTGCTCCTTGAGGGGTTGTTTGT; listed as DNA, chemistry not fully specified) [SEQ ID NO:107]
- Normalized IL-6 Response (Percentage of Positive Control) [1]: 43%
- Normalized IL-6 Response (Percentage of Positive Control) [2]: 43%

Substance: 5′-UGCTGCTCCTTGAGGGGTTGUU UG U (DNA UGCTGCTCCTTGAGGGGTTGUUUGU; sugars from the 5' end m3 d16 m6, backbone not given here) [SEQ ID NO:104]
- Normalized IL-6 Response (Percentage of Positive Control) [1]: 7%
- Normalized IL-6 Response (Percentage of Positive Control) [2]: 7%

Substance: 5′-UGC TGC TCC TTG AGI GG (DNA UGCTGCTCCTTGAGNGG; sugars from the 5' end m3 d14, [I] at 15, backbone not given here) [SEQ ID NO:117]
- Normalized IL-6 Response (Percentage of Positive Control) [5]: 17%
- Normalized IL-6 Response (Percentage of Positive Control) [6]: 13%

Substance: 5′-UGC TGC TCC TTG AGI GGT GTT GT (DNA UGCTGCTCCTTGAGNGGTGTTGT; sugars from the 5' end m3 d20, [I] at 15, backbone not given here) [SEQ ID NO:180]
- Normalized IL-6 Response (Percentage of Positive Control) [3]: 46%

Substance: 5′-UGC TGC TCC TTG AGI GGT TGT (DNA UGCTGCTCCTTGAGNGGTTGT; sugars from the 5' end m3 d18, [I] at 15, backbone not given here) [SEQ ID NO:114]
- Normalized IL-6 Response (Percentage of Positive Control) [1]: 40%
- Normalized IL-6 Response (Percentage of Positive Control) [5]: 39%
- Normalized IL-6 Response (Percentage of Positive Control) [6]: 39%
- Normalized IL-6 Response (Percentage of Positive Control) [2]: 40%

Substance: 5′-UGC TGC TCC TTG AGI GGT TGT (DNA UGCTGCTCCTTGAGNGGTTGT; sugars from the 5' end m3 d18, [I] at 15, backbone not given here) [SEQ ID NO:126]
- Normalized IL-6 Response (Percentage of Positive Control) [4]: 37%

Substance: 5′-UGC TGC TCC TTG AGI GGT TGT (DNA UGCTGCTCCTTGAGNGGTTGT; sugars from the 5' end m3 d18, [I] at 15, backbone not given here) [SEQ ID NO:127]
- Normalized IL-6 Response (Percentage of Positive Control) [3]: 46%

Substance: 5′-UGC TGC TCC TTG AGI GGT TGT AAG T (DNA UGCTGCTCCTTGAGNGGTTGTAAGT; sugars from the 5' end m3 d22, [I] at 15, backbone not given here) [SEQ ID NO:129]
- Normalized IL-6 Response (Percentage of Positive Control) [3]: 51%

Substance: 5′-UGCTTGTCCTGGAGGGGTTGT (DNA NNNTTGTCCTGGAGGGGTTGT; listed as DNA, chemistry not fully specified) [SEQ ID NO:87]
- Normalized IL-6 Response (Percentage of Positive Control) [5]: 16%
- Normalized IL-6 Response (Percentage of Positive Control) [6]: 12%

Substance: 5′-UGC TTG TCC TGG AGI GGT GTT GT (DNA UGCTTGTCCTGGAGNGGTGTTGT; sugars from the 5' end m3 d20, [I] at 15, backbone not given here) [SEQ ID NO:124]
- Normalized IL-6 Response (Percentage of Positive Control) [7]: 33%

Substance: 5′-UGC TTG TCC TGG AGI GGT TG-HEG-T (DNA NNNTTGTCCTGGAGNGGTTGNT; inosine, internal HEG spacer, chemistry not fully specified) [SEQ ID NO:142]
- Normalized IL-6 Response (Percentage of Positive Control) [8]: 35%
- Normalized IL-6 Response (Percentage of Positive Control) [7]: 22%

Substance: 5′-UGC TTG TCC TGG AGI GGT TGT (DNA UGCTTGTCCTGGAGNGGTTGT; sugars from the 5' end m3 d18, [I] at 15, backbone not given here) [SEQ ID NO:123]
- Normalized IL-6 Response (Percentage of Positive Control) [8]: 35%
- Normalized IL-6 Response (Percentage of Positive Control) (Experiment # 9, Max Conc 2.0 uM): 35%

Substance: 5′TGC TCC TTG AGI GGT TGT TTG T-3′ (DNA TGCTCCTTGAGNGGTTGTTTGT; DNA, [I] at 12, backbone not given here) [SEQ ID NO:63]
- Normalized IL-6 Response (Percentage of Positive Control) [1]: 46%
- Normalized IL-6 Response (Percentage of Positive Control) [5]: 48%
- Normalized IL-6 Response (Percentage of Positive Control) [6]: 41%
- Normalized IL-6 Response (Percentage of Positive Control) [2]: 46%
